Values of other authors as cited in patent US20260373126A1, “COMPOSITIONS AND METHODS OF TREATING CANCER” (Board of Supervisors of Louisiana State University and …, priority 2022, published 2026).

System: mitochondrial respiration
Conditions: reference 2

CC(C)OC(=O)C(C)(C)Oc1ccc(C(=O)c2ccc(Cl)cc2)cc1 [FF, Fenofibrate]
mitochondrial respiration: blocked mitochondrial respiration
